ChEMBL document CHEMBL1909046, “DrugMatrix in vitro pharmacology data”

Assays:
[1] = target: 5-hydroxytryptamine receptor 6 (Homo sapiens, UniProt P50406); assay type: cell membranes, HeLa, Membrane; conditions: for Ki: read-out: Ki; as to all read-outs here: in other assays of this panel Not Active means under 50% inhibition at 10 µM
[2] = target: T1, Substance-K receptor (Homo sapiens, UniProt P21452); assay type: cell membranes, CHO, Membrane; conditions: for Ki: read-out: Ki; as to all read-outs here: in other assays of this panel Not Active means under 50% inhibition at 10 µM
T1 sequence (P21452 whole entry): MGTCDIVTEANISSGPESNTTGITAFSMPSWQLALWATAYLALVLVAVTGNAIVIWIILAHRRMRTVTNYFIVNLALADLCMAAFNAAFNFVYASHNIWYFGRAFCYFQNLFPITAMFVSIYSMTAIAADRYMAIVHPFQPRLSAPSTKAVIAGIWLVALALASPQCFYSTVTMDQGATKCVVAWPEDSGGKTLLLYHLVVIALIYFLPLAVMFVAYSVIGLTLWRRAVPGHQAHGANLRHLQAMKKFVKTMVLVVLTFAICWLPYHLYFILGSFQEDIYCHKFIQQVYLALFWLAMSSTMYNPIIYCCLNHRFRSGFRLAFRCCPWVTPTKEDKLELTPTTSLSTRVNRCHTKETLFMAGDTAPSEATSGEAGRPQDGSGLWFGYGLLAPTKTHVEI

[3] = target: T2, Alpha-1A adrenergic receptor (Rattus norvegicus, UniProt P43140); assay: DRUGMATRIX: Alpha-1A adrenergic receptor radioligand binding (ligand: prazosin); assay type: cell membranes, Wistar, Submaxillary gland, Membrane; conditions: Not Active = under 50% inhibition at 10 µM; for Ki: read-out: Ki
T2 sequence (P43140 whole entry): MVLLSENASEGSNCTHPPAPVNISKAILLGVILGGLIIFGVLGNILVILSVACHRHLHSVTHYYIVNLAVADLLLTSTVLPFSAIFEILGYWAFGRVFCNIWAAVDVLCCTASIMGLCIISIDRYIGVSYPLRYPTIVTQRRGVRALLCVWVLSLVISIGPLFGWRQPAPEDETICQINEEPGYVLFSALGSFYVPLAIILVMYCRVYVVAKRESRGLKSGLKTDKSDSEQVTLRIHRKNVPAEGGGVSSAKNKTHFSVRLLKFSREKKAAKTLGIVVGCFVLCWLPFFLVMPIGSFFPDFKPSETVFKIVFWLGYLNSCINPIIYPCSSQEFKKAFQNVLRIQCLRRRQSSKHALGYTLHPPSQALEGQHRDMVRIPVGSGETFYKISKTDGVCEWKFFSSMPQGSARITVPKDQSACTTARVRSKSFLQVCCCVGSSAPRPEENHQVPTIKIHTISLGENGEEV

[4] = target: T3, Progesterone receptor (Bos taurus, UniProt Q690N0); assay: DRUGMATRIX: Progesterone radioligand binding (ligand: [3H] R-5020); assay type: tissue-based, Uterus; conditions: Not Active = under 50% inhibition at 10 µM
T3 sequence (Q690N0 whole entry): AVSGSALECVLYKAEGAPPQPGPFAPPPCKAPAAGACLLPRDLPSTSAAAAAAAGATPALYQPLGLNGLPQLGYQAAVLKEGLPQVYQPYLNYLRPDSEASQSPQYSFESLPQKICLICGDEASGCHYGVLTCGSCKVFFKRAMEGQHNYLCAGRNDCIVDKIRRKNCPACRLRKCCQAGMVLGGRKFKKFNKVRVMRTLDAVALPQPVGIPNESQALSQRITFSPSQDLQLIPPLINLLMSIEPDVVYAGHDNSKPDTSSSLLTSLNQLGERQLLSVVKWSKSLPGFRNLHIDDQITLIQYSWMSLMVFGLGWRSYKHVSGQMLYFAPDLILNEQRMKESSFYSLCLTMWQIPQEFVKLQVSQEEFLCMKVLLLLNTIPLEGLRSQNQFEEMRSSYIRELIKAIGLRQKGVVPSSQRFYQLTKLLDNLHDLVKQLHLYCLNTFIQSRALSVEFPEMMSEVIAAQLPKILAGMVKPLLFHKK

[5] = target: T4, Estrogen receptor (Homo sapiens, UniProt P03372); conditions: sf9; also: in other assays of this panel Not Active means under 50% inhibition at 10 µM
T4 sequence (P03372 whole entry): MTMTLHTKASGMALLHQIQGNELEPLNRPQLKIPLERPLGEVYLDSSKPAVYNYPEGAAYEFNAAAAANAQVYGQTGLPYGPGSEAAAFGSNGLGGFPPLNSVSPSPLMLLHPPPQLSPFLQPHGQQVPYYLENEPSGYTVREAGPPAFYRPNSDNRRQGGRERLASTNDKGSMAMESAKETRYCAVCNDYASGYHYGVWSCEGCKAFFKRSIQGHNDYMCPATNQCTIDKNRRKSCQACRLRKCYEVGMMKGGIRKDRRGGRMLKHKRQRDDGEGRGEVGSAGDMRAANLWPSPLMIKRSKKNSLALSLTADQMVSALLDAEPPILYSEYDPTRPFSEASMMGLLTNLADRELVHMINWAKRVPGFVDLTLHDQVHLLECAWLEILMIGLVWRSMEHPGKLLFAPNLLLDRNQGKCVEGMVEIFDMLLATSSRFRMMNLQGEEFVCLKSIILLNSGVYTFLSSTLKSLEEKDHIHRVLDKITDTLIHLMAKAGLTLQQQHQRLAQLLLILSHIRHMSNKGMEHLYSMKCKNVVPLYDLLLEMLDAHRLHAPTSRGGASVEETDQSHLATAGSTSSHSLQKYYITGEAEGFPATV

Sequence of 5-hydroxytryptamine receptor 6 (P50406 whole entry): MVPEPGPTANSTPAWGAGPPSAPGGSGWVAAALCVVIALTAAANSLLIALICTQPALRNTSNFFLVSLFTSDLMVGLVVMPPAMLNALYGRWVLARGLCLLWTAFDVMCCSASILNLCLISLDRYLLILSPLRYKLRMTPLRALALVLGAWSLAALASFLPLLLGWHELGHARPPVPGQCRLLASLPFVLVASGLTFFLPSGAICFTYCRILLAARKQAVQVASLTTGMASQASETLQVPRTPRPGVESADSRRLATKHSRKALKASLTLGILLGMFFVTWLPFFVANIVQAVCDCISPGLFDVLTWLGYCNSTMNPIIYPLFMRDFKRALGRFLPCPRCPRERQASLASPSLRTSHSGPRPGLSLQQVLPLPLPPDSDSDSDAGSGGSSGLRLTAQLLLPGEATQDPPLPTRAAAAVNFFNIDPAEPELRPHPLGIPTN

| Compound | IC50 ([1]; hela) | IC50 ([2]; cho) | IC50 [3] | IC50 [4] | IC50 [5] | IC50 ([3]; read-out: IC50) [nM] | Ki [3] [nM] | IC50 ([1]; read-out: IC50) [nM] | Ki [1] [nM] | IC50 ([2]; read-out: IC50) [nM] | Ki [2] [nM] | Ki ([4]; read-out: Ki) [nM] |
| --- | --- | --- | --- | --- | --- | --- | --- | --- | --- | --- | --- | --- |
| CC1=C(CC(=O)O)c2cc(F)ccc2/C1=C\c1ccc([S+](C)[O-])cc1 (stereo not drawn) | Not Active | Not Active | Not Active | Not Active | – | – | – | – | – | – | – | – |
| Clc1ccc2c(c1)C(N1CCNCC1)=Nc1ccccc1O2 [AMOXAPINE] | – | Not Active | – | Not Active | Not Active | 357 | 144 | – | – | – | – | – |
| CN1CCC(=C2c3ccccc3C=Cc3ccccc32)CC1 [CYPROHEPTADINE] | – | Not Active | – | Not Active | Not Active | 241 | 98 | 281 | 130 | – | – | – |
| CC/C(=C(/CC)c1ccc(O)cc1)c1ccc(O)cc1 [DIETHYLSTILBESTROL] | – | – | – | – | – | 19500 | 7890 | 12900 | 5990 | 9550 | 3180 | 611 |
| CC(=O)N1CCN(c2ccc(OCC3COC(Cn4ccnc4)(c4ccc(Cl)cc4Cl)O3)cc2)CC1 (stereo not drawn) [KETOCONAZOLE] | Not Active | – | – | Not Active | Not Active | 35700 | 14500 | – | – | 17200 | 5750 | – |
| C=CCN1CC[C@]23c4c5ccc(O)c4O[C@H]2C(=O)CC[C@@]3(O)[C@H]1C5 [NALOXONE] | Not Active | Not Active | Not Active | Not Active | – | – | – | – | – | – | – | – |
| COCCOC(=O)C1=C(C)NC(C)=C(C(=O)OC(C)C)C1c1cccc([N+](=O)[O-])c1 (stereo not drawn) [NIMODIPINE] | Not Active | Not Active | Not Active | Not Active | Not Active | – | – | – | – | – | – | – |
| CC(C)NCC(O)COc1cccc2ccccc12 (stereo not drawn) [PROPRANOLOL] | – | Not Active | Not Active | Not Active | – | – | – | 3060 | 1420 | – | – | – |
| COCCCOc1ccnc(C[S+]([O-])c2nc3ccccc3[nH]2)c1C (stereo not drawn) [RABEPRAZOLE] | Not Active | Not Active | Not Active | Not Active | – | – | – | – | – | – | – | – |
| O=C(c1ccc(OCCN2CCCCC2)cc1)c1c(-c2ccc(O)cc2)sc2cc(O)ccc12 [RALOXIFENE] | Not Active | – | – | Not Active | – | 2200 | 892 | – | – | 3990 | 1330 | – |
| CNC(=C[N+](=O)[O-])NCCSCc1ccc(CN(C)C)o1 [RANITIDINE] | Not Active | Not Active | Not Active | Not Active | Not Active | – | – | – | – | – | – | – |
| CC(C)c1nc(CN(C)C(=O)N[C@H](C(=O)N[C@@H](Cc2ccccc2)C[C@H](O)[C@H](Cc2ccccc2)NC(=O)OCc2cncs2)C(C)C)cs1 [RITONAVIR] | Not Active | – | Not Active | Not Active | Not Active | – | – | – | – | – | – | – |
| CC(C)CC(N(C)C)C1(c2ccc(Cl)cc2)CCC1 (stereo not drawn) [SIBUTRAMINE] | Not Active | Not Active | Not Active | Not Active | – | – | – | – | – | – | – | – |
| [H]/N=C(/N)N[C@H]1[C@H](O)[C@@H](O)[C@H](O[C@@H]2O[C@@H](C)[C@](O)(C=O)[C@H]2O[C@@H]2O[C@@H](CO)[C@H](O)[C@@H](O)[C@@H]2NC)[C@@H](N/C(N)=N\[H])[C@@H]1O [STREPTOMYCIN] | Not Active | Not Active | Not Active | Not Active | Not Active | – | – | – | – | – | – | – |
| Cc1cc(C)nc(NS(=O)(=O)c2ccc(N)cc2)n1 [SULFAMETHAZINE] | Not Active | Not Active | Not Active | Not Active | – | – | – | – | – | – | – | – |
| C[C@]1(Cn2ccnn2)[C@H](C(=O)O)N2C(=O)C[C@H]2S1(=O)=O [TAZOBACTAM] | Not Active | Not Active | Not Active | Not Active | Not Active | – | – | – | – | – | – | – |
| CN1C(C(=O)Nc2ccccn2)=C(O)c2sccc2S1(=O)=O [TENOXICAM] | Not Active | Not Active | Not Active | Not Active | Not Active | – | – | – | – | – | – | – |
| CC(C)(C)c1ccc(C(O)CCCN2CCC(C(O)(c3ccccc3)c3ccccc3)CC2)cc1 (stereo not drawn) [TERFENADINE] | – | – | Not Active | Not Active | Not Active | – | – | – | – | 2680 | 892 | – |
| O=C1CCC(N2C(=O)c3ccccc3C2=O)C(=O)N1 (stereo not drawn) [THALIDOMIDE] | Not Active | Not Active | Not Active | Not Active | – | – | – | – | – | – | – | – |
| Cc1cccc(Nc2ccncc2S(=O)(=O)NC(=O)NC(C)C)c1 [TORSEMIDE] | Not Active | Not Active | Not Active | Not Active | Not Active | – | – | – | – | – | – | – |
| CC(C)C[C@H](NC(=O)[C@@H](O)[C@H](N)Cc1ccccc1)C(=O)O [UBENIMEX] | Not Active | Not Active | Not Active | Not Active | Not Active | – | – | – | – | – | – | – |
| Cc1onc(-c2ccccc2)c1-c1ccc(S(N)(=O)=O)cc1 [VALDECOXIB] | Not Active | Not Active | Not Active | Not Active | – | – | – | – | – | – | – | – |
| CC[C@]1(O)C[C@@H]2CN(CCc3c([nH]c4ccccc34)[C@@](C(=O)OC)(c3cc4c(cc3OC)N(C)[C@H]3[C@@](O)(C(=O)OC)[C@H](OC(C)=O)[C@]5(CC)C=CCN6CC[C@]43[C@@H]65)C2)C1 [VINBLASTINE] | Not Active | Not Active | Not Active | Not Active | Not Active | – | – | – | – | – | – | – |
| CC(=O)CC(c1ccccc1)c1c(O)c2ccccc2oc1=O (stereo not drawn) [WARFARIN] | Not Active | Not Active | Not Active | Not Active | – | – | – | – | – | – | – | – |
| [Cl-].[Cl-].[Zn+2] [ZINC CHLORIDE] | Not Active | Not Active | Not Active | Not Active | Not Active | – | – | – | – | – | – | – |
